Tests used:
redroot pigweed [1] = assay: Test Example 5: herbicidal effect by foliage application, plastic box (Table 20, symbol N); type: in vivo, redroot pigweed (Amaranthus retroflexus); conditions: foliage application, 320 g/ha, evaluated three weeks after application
Method in brief: (§1)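 Plants were sown into sterilized diluvial soil under about 1.5 cm cover and kept in a greenhouse at 25° C. to 30° C. Fourteen days on, foliage received an even spray of the diluted emulsion. Herbicidal or crop effect was judged three weeks afterwards.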

wild oat [2] = assay: Test Example 4: herbicidal effect by soil treatment (Table 19, symbol I); type: in vivo, wild oat (Avena fatua)
Method in brief: (§2)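 In this soil treatment, the formulated compound reached the seeds only through the soil: seeds were buried about 1.5 cm deep in sterilized diluvial soil, then the diluted emulsion was sprayed over the surface. After three weeks at 25° C. to 30° C. in a greenhouse, effects were graded on criteria from an earlier test.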

lambsquarters [3] = assay: Test Example 5: herbicidal effect by foliage application, plastic box (Table 20, symbol O); type: in vivo, lambsquarters (Chenopodium album); conditions: foliage application, 320 g/ha, evaluated three weeks after application
Method in brief: as §1

southern crabgrass [4] = assay: Test Example 5: herbicidal effect by foliage application, plastic box (Table 20, symbol F); type: in vivo, southern crabgrass (Digitaria ciliaris); conditions: foliage application, 320 g/ha, evaluated three weeks after application
Method in brief: as §1

blackgrass [5] = assay: Test Example 5: herbicidal effect by foliage application, plastic box (Table 20, symbol J); type: in vivo, blackgrass (Alopecurus myosuroides); conditions: foliage application, 320 g/ha, evaluated three weeks after application
Method in brief: as §1

false cleavers = assay: Test Example 4: herbicidal effect by soil treatment (Table 19, symbol Q); type: in vivo, false cleavers (Galium spurium)
Method in brief: as §2

windgrass [6] = assay: Test Example 5: herbicidal effect by foliage application, plastic box (Table 20, symbol L); type: in vivo, windgrass (Apera spica-venti); conditions: foliage application, 320 g/ha, evaluated three weeks after application
Method in brief: as §1

green foxtail [7] = assay: Test Example 4: herbicidal effect by soil treatment (Table 19, symbol G); type: in vivo, green foxtail (Setaria viridis)
Method in brief: as §2

rice flat sedge = assay: Test Example 3: herbicidal effect by foliage application, Wagner pot (Table 18, symbol E); type: in vivo, rice flat sedge (Cyperus iria)
Method in brief: (§3)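 Plants were sown in alluvial soil held under 0.1–0.5 cm standing water and grown 14 days in a greenhouse at 25–30 °C. An emulsifiable formulation, water-diluted to the set dose, was then sprayed onto the foliage, and effects were scored three weeks later using previously defined criteria.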

velvetleaf [8] = assay: Test Example 5: herbicidal effect by foliage application, plastic box (Table 20, symbol M); type: in vivo, velvetleaf (Abutilon theophrasti); conditions: foliage application, 320 g/ha, evaluated three weeks after application
Method in brief: as §1

persian speedwell [9] = assay: Test Example 4: herbicidal effect by soil treatment (Table 19, symbol R); type: in vivo, Persian speedwell (Veronica persica)
Method in brief: as §2

green foxtail [10] = assay: Test Example 5: herbicidal effect by foliage application, plastic box (Table 20, symbol G); type: in vivo, green foxtail (Setaria viridis); conditions: foliage application, 320 g/ha, evaluated three weeks after application
Method in brief: as §1

persian speedwell [11] = assay: Test Example 5: herbicidal effect by foliage application, plastic box (Table 20, symbol R); type: in vivo, Persian speedwell (Veronica persica); conditions: foliage application, 320 g/ha, evaluated three weeks after application
Method in brief: as §1

redroot pigweed [12] = assay: Test Example 4: herbicidal effect by soil treatment (Table 19, symbol N); type: in vivo, redroot pigweed (Amaranthus retroflexus)
Method in brief: as §2

chickweed [13] = assay: Test Example 4: herbicidal effect by soil treatment (Table 19, symbol P); type: in vivo, common chickweed (Stellaria media)
Method in brief: as §2

Italian ryegrass [14] = assay: Test Example 5: herbicidal effect by foliage application, plastic box (Table 20, symbol K); type: in vivo, Italian ryegrass (Lolium multiflorum); conditions: foliage application, 320 g/ha, evaluated three weeks after application
Method in brief: as §1

blackgrass [15] = assay: Test Example 4: herbicidal effect by soil treatment (Table 19, symbol J); type: in vivo, blackgrass (Alopecurus myosuroides)
Method in brief: as §2

velvetleaf [16] = assay: Test Example 4: herbicidal effect by soil treatment (Table 19, symbol M); type: in vivo, velvetleaf (Abutilon theophrasti)
Method in brief: as §2

barnyard grass [17] = assay: Test Example 3: herbicidal effect by foliage application, Wagner pot (Table 18, symbol H); type: in vivo, barnyard grass (Echinochloa crus-galli)
Method in brief: as §3

barnyard grass [18] = assay: Test Example 4: herbicidal effect by soil treatment (Table 19, symbol H); type: in vivo, barnyard grass (Echinochloa crus-galli)
Method in brief: as §2

barnyard grass [19] = assay: Test Example 5: herbicidal effect by foliage application, plastic box (Table 20, symbol H); type: in vivo, barnyard grass (Echinochloa crus-galli); conditions: foliage application, 320 g/ha, evaluated three weeks after application
Method in brief: as §1

wild oat [20] = assay: Test Example 5: herbicidal effect by foliage application, plastic box (Table 20, symbol I); type: in vivo, wild oat (Avena fatua); conditions: foliage application, 320 g/ha, evaluated three weeks after application
Method in brief: as §1

southern crabgrass [21] = assay: Test Example 4: herbicidal effect by soil treatment (Table 19, symbol F); type: in vivo, southern crabgrass (Digitaria ciliaris)
Method in brief: as §2

Italian ryegrass [22] = assay: Test Example 4: herbicidal effect by soil treatment (Table 19, symbol K); type: in vivo, Italian ryegrass (Lolium multiflorum)
Method in brief: as §2

Chinese sprangletop = assay: Test Example 3: herbicidal effect by foliage application, Wagner pot (Table 18, symbol D); type: in vivo, chinese sprangletop (Leptochloa chinensis)
Method in brief: as §3

windgrass [23] = assay: Test Example 4: herbicidal effect by soil treatment (Table 19, symbol L); type: in vivo, windgrass (Apera spica-venti)
Method in brief: as §2

lambsquarters [24] = assay: Test Example 4: herbicidal effect by soil treatment (Table 19, symbol O); type: in vivo, lambsquarters (Chenopodium album)
Method in brief: as §2

chickweed [25] = assay: Test Example 5: herbicidal effect by foliage application, plastic box (Table 20, symbol P); type: in vivo, common chickweed (Stellaria media); conditions: foliage application, 320 g/ha, evaluated three weeks after application
Method in brief: as §1

[26] = amount of applied herbicide 320 g/ha

With Cc1nn(C)c(=O)c(-c2c(-c3ccc(F)cc3)sc3ccc(Cl)cc23)c1O [2-097] the “herbicidal effect on N: redroot pigweed” value (redroot pigweed [1]) was 5 (Herbicidal rate of 90% or more (almost completely withered)), the “herbicidal effect rating, I: wild oat” value (wild oat [2]; 320 g/ha) was 1 (Herbicidal rate of 5% or more and less than 20%) and the “herbicidal effect on O: lambsquarters” value (lambsquarters [3]) was 5 (Herbicidal rate of 90% or more (almost completely withered)). The “herbicidal effect on F: southern crabgrass” value (southern crabgrass [4]) was 5 (Herbicidal rate of 90% or more (almost completely withered)), the “herbicidal effect on J: blackgrass” value (blackgrass [5]) was 5 (Herbicidal rate of 90% or more (almost completely withered)) and the “herbicidal effect rating, Q: false cleavers” value (false cleavers; 320 g/ha) was 4 (Herbicidal rate of 70% or more and less than 90%). For the same compound, the “herbicidal effect on L: windgrass” value (windgrass [6]) was 5 (Herbicidal rate of 90% or more (almost completely withered)), the “herbicidal effect rating, G: green foxtail” value (green foxtail [7]; 320 g/ha) was 3 (Herbicidal rate of 40% or more and less than 70%) and the “herbicidal effect on E (rice flat sedge), rating 0-5” value (rice flat sedge; 320 g/ha) was 4 (Herbicidal rate of 70% or more and less than 90%). The “herbicidal effect on M: velvetleaf” value (velvetleaf [8]) was 5 (Herbicidal rate of 90% or more (almost completely withered)), the “herbicidal effect rating, R: persian speedwell” value (persian speedwell [9]; 320 g/ha) was 5 (Herbicidal rate of 90% or more (almost completely withered)) and the “herbicidal effect on G: green foxtail” value (green foxtail [10]) was 5 (Herbicidal rate of 90% or more (almost completely withered)). For the same compound, the “herbicidal effect on R: persian speedwell” value (persian speedwell [11]) was 5 (Herbicidal rate of 90% or more (almost completely withered)), the “herbicidal effect rating, N: redroot pigweed” value (redroot pigweed [12]; 320 g/ha) was 5 (Herbicidal rate of 90% or more (almost completely withered)) and the “herbicidal effect rating, P: chickweed” value (chickweed [13]; 320 g/ha) was 5 (Herbicidal rate of 90% or more (almost completely withered)). For the same compound, the “herbicidal effect on K: Italian ryegrass” value (Italian ryegrass [14]) was 5 (Herbicidal rate of 90% or more (almost completely withered)), the “herbicidal effect rating, J: blackgrass” value (blackgrass [15]; 320 g/ha) was 5 (Herbicidal rate of 90% or more (almost completely withered)) and the “herbicidal effect rating, M: velvetleaf” value (velvetleaf [16]; 320 g/ha) was 3 (Herbicidal rate of 40% or more and less than 70%). For the same compound, the “herbicidal effect on H (barnyard grass), rating 0-5” value (barnyard grass [17]; 320 g/ha) was 5 (Herbicidal rate of 90% or more (almost completely withered)), the “herbicidal effect rating, H: barnyard grass” value (barnyard grass [18]; 320 g/ha) was 3 (Herbicidal rate of 40% or more and less than 70%) and the “herbicidal effect on H: barnyard grass” value (barnyard grass [19]) was 5 (Herbicidal rate of 90% or more (almost completely withered)). The “herbicidal effect on I: wild oat” value (wild oat [20]) was 5 (Herbicidal rate of 90% or more (almost completely withered)), the “herbicidal effect rating, F: southern crabgrass” value (southern crabgrass [21]; 320 g/ha) was 2 (Herbicidal rate of 20% or more and less than 40%) and the “herbicidal effect rating, K: Italian ryegrass” value (Italian ryegrass [22]; 320 g/ha) was 5 (Herbicidal rate of 90% or more (almost completely withered)). The “herbicidal effect on D (Chinese sprangletop), rating 0-5” value (Chinese sprangletop; 320 g/ha) was 3 (Herbicidal rate of 40% or more and less than 70%), the “herbicidal effect rating, L: windgrass” value (windgrass [23]; 320 g/ha) was 5 (Herbicidal rate of 90% or more (almost completely withered)) and the “herbicidal effect rating, O: lambsquarters” value (lambsquarters [24]; 320 g/ha) was 5 (Herbicidal rate of 90% or more (almost completely withered)). For the same compound, the “herbicidal effect on P: chickweed” value (chickweed [25]) was 5 (Herbicidal rate of 90% or more (almost completely withered)).

With CCCC(=O)Oc1c(C)nn(C)c(=O)c1-c1c(-c2ccc3c(c2)OCO3)sc2ccc(C)cc12 [2-157] the “herbicidal effect on N: redroot pigweed (criteria 0-5)” value (redroot pigweed [1]) was 3 (Herbicidal rate of 40% or more and less than 70%), the “I: wild oat, herbicidal effect rating” value (wild oat [2]; [26]) was 0 (Herbicidal rate of 5% or less (almost no effect)) and the “herbicidal effect on O: lambsquarters (criteria 0-5)” value (lambsquarters [3]) was 0 (Herbicidal rate of 5% or less (almost no effect)). For the same compound, the “herbicidal effect on F: southern crabgrass (criteria 0-5)” value (southern crabgrass [4]) was 0 (Herbicidal rate of 5% or less (almost no effect)), the “herbicidal effect on J: blackgrass (criteria 0-5)” value (blackgrass [5]) was 0 (Herbicidal rate of 5% or less (almost no effect)) and the “Q: false cleavers, herbicidal effect rating” value (false cleavers; [26]) was 0 (Herbicidal rate of 5% or less (almost no effect)). The “herbicidal effect on L: windgrass (criteria 0-5)” value (windgrass [6]) was 0 (Herbicidal rate of 5% or less (almost no effect)), the “G: green foxtail, herbicidal effect rating” value (green foxtail [7]; [26]) was 0 (Herbicidal rate of 5% or less (almost no effect)) and the “herbicidal effect on E: rice flat sedge” value (rice flat sedge; [26]) was 0 (Herbicidal rate of 5% or less (almost no effect)). The “herbicidal effect on M: velvetleaf (criteria 0-5)” value (velvetleaf [8]) was 0 (Herbicidal rate of 5% or less (almost no effect)), the “R: persian speedwell, herbicidal effect rating” value (persian speedwell [9]; [26]) was 3 (Herbicidal rate of 40% or more and less than 70%) and the “herbicidal effect on G: green foxtail (criteria 0-5)” value (green foxtail [10]) was 0 (Herbicidal rate of 5% or less (almost no effect)). The “herbicidal effect on R: persian speedwell (criteria 0-5)” value (persian speedwell [11]) was 4 (Herbicidal rate of 70% or more and less than 90%), the “N: redroot pigweed, herbicidal effect rating” value (redroot pigweed [12]; [26]) was 0 (Herbicidal rate of 5% or less (almost no effect)) and the “P: chickweed, herbicidal effect rating” value (chickweed [13]; [26]) was 4 (Herbicidal rate of 70% or more and less than 90%). For the same compound, the “herbicidal effect on K: Italian ryegrass (criteria 0-5)” value (Italian ryegrass [14]) was 0 (Herbicidal rate of 5% or less (almost no effect)), the “J: blackgrass, herbicidal effect rating” value (blackgrass [15]; [26]) was 0 (Herbicidal rate of 5% or less (almost no effect)) and the “M: velvetleaf, herbicidal effect rating” value (velvetleaf [16]; [26]) was 0 (Herbicidal rate of 5% or less (almost no effect)). The “herbicidal effect on H: barnyard grass” value (barnyard grass [17]; [26]) was 3 (Herbicidal rate of 40% or more and less than 70%), the “H: barnyard grass, herbicidal effect rating” value (barnyard grass [18]; [26]) was 0 (Herbicidal rate of 5% or less (almost no effect)) and the “herbicidal effect on H: barnyard grass (criteria 0-5)” value (barnyard grass [19]) was 0 (Herbicidal rate of 5% or less (almost no effect)). The “herbicidal effect on I: wild oat (criteria 0-5)” value (wild oat [20]) was 0 (Herbicidal rate of 5% or less (almost no effect)), the “F: southern crabgrass, herbicidal effect rating” value (southern crabgrass [21]; [26]) was 0 (Herbicidal rate of 5% or less (almost no effect)) and the “K: Italian ryegrass, herbicidal effect rating” value (Italian ryegrass [22]; [26]) was 0 (Herbicidal rate of 5% or less (almost no effect)). For the same compound, the “herbicidal effect on D: Chinese sprangletop” value (Chinese sprangletop; [26]) was 0 (Herbicidal rate of 5% or less (almost no effect)), the “L: windgrass, herbicidal effect rating” value (windgrass [23]; [26]) was 0 (Herbicidal rate of 5% or less (almost no effect)) and the “O: lambsquarters, herbicidal effect rating” value (lambsquarters [24]; [26]) was 0 (Herbicidal rate of 5% or less (almost no effect)). The “herbicidal effect on P: chickweed (criteria 0-5)” value (chickweed [25]) was 0 (Herbicidal rate of 5% or less (almost no effect)).

From US20230085307A1, “PYRIDAZINONE COMPOUND AND HERBICIDE” (NISSAN CHEMICAL CORPORATION, priority 2019, published 2023)
